This is an account of results in paper PMC3480435, “Identification, Expression and Activity Analyses of Five Novel Duck Beta-Defensins” (PLoS ONE, 2012).

The subject of experiment [1] is 12 bacteria (four Gram-positive and eight Gram-negative strains). To be noted: colony counting, 10-100 µg/mL in PBS, 3 h preincubation then 12-18 h; % of CFU of unexposed bacteria; mean of three independent experiments, three replicates each; Fig. 3.
Description: The antimicrobial activities of both rAvBD and sAvBD were determined by colony counting assay. Briefly, a 10 µL of diluted bacterial culture (diluted 1000-fold in the appropriate medium) was treated with 250 µL of rAvBD or sAvBD (0 to 100 µg/mL in PBS) in polypropylene microtiter plates and preincubated for 3 h at conditions suited to the investigated strain; 100 µL of minimal medium was added after 3 h and the plates were incubated for 12–18 h further. Then, the sample was rediluted 100-to-10^6-fold in minimal medium, transferred to TSA plates and colonies were counted after 24 h of incubation. Bactericidal activity was calculated as a percentage of CFU of bacteria not exposed to antimicrobial peptides but subjected to the same experimental conditions. Results from the antimicrobial assay represent the mean of the three independent experiments, with three replicates per experiment.
The subject of experiment [2] is DHV-1 strain Du/CH/LBJ/090809. To be noted: DHV-1 serially diluted, treated with equal volume of 300 µg/mL protein in PBS, 37°C 60 min; 11-day-old SPF duck embryos, observed 7 days; three independent experiments, five replicates.
Description: Briefly, the DHV-1 (10^8 median embryo infectious doses, EID50) was serially diluted 10-fold and treated with equal volumes of GST or rAvBDs (300 µg/mL in PBS) at 37°C for 60 min. The mixture was inoculated into 11-day-old specific pathogen free (SPF) duck embryos, with 200 µL administered per duck. The inoculated duck embryos were incubated at 37°C and observed for 7 days. Mortality was recorded every 8 h. […] All antiviral activity assays were performed in three independent experiments, with five replicates per experiment.

Take glutathione-S-transferase [GST]: in experiment [1], the “bactericidal activity against all of the bacterial strains investigated” value was “no bactericidal activity”. The “survival time of duck embryos inoculated with treated DHV” value in experiment [2] is “little effect”.
